Data as given in paper PMC3148428 (2011).

Target: T1, ABCG2 (Rattus norvegicus, UniProt Q80W57)
T1 sequence (Q80W57 1-657): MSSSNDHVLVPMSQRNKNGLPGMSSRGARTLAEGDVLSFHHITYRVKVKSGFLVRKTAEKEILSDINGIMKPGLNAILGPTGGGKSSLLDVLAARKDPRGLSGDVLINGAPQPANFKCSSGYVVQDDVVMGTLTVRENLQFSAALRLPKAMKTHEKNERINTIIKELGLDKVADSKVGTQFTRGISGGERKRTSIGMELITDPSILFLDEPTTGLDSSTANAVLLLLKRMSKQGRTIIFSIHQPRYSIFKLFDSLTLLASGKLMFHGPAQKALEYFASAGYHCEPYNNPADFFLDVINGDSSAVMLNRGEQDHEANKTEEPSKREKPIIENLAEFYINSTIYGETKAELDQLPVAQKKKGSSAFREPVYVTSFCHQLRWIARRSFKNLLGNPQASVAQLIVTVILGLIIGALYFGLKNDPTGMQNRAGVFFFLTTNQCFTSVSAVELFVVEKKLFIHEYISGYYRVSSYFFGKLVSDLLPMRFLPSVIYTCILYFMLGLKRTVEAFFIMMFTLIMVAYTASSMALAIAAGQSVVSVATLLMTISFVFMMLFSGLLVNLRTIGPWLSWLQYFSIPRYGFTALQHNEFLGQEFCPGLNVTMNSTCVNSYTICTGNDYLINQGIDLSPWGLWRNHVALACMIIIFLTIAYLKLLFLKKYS

IC50: 0.0932 µM
SMILES: Cc1cn(-c2cc(NC(=O)c3ccc(C)c(Nc4nccc(-c5cccnc5)n4)c3)cc(C(F)(F)F)c2)cn1 [Tasigna]
